Measured values published in patent publication US20240240256A1, “MOLECULAR ANALYSIS OF EXTRACELLULAR VESICLES (EVs) FOR THE PREDICTION AND MONITORING OF DRUG RESISTANCE IN CANCER” (The General Hospital Corporation, priority 2023, published 2024).
pIC50: −log10 of the molar value.

Legend:
BT474 = test: MTT growth inhibition assay, paclitaxel drug sensitivity; assay type: cell-based; details: Homo sapiens, BT-474, BT474 breast cancer cells, 72 h treatment, read-out: paclitaxel inhibitor concentration 50 (IC50)
Protocol: (§1) The human breast cancer cell lines, including HCC1954, BT474, MCF7, MDA-MB-231, HCC1937 cells, and normal breast cell, Hs371T, were purchased from American Type Culture Collection (ATCC) and cultured at 37° C. in 5% CO2. HCC1954, BT474, and HCC1937 cells were grown in RPMI-1640 (Hyclone), and MCF7, MDA-MB-231, and Hs371T cells were cultured in DMEM (Cyclone). All complete media contained 10% fetal bovine serum (FBS, ThermoFisher Scientific), 100 U/mL penicillin, and 100 μg/mL streptomycin (Millipore Sigma).
(§2) Drug sensitivity was determined by the 3-(4, 5-dimethylthiazol-2-yl)-2, 5-diphenyl tetrazolium bromide (MTT) colorimetric assay. First, cells were counted with a hemocytometer, seeded in a 96-well plate, and cultured for 24 h. After that, cells were treated with paclitaxel for 72 h: paclitaxel (1.00E-06-10 µM). Subsequently, MTT dye (Sigma-Aldrich; Merck KGaA) at a final concentration of 0.5 mg/ml was added for 3 hours. This was followed by replacing the medium and dissolving the formazan crystals with DMSO. The optical density (OD; absorbance at 540 nm) was measured using a plate reader (Tecan). Data (mean±SD of at least three independent experiments performed in triplets) are presented as the relative proliferation as a function of time after seeding.
(§3) MTT assay was performed for each cell line to determine the paclitaxel inhibitor concentration 50 (IC50) in the six breast cancer cell lines included.

HCC1954 = test: as above; assay type: cell-based; details: Homo sapiens, HCC1954 breast cancer cells, 72 h treatment, read-out: paclitaxel inhibitor concentration 50 (IC50)
Protocol: as §1, §2, §3

HCC1937 = test: as above; assay type: cell-based; details: Homo sapiens, HCC1937 breast cancer cells, 72 h treatment, read-out: paclitaxel inhibitor concentration 50 (IC50)
Protocol: as §1, §2, §3

MD-MB-231 = test: as above; assay type: cell-based; details: Homo sapiens, MD-MB-231 breast cancer cells, 72 h treatment, read-out: paclitaxel inhibitor concentration 50 (IC50)
Protocol: as §1, §2, §3

HCC1954 REPX = test: MTT growth inhibition assay, paclitaxel-resistant subtype; assay type: cell-based, human
Protocol: To develop the paclitaxel resistance subtype, cells were continually exposed to stepwise increases in the concentration of paclitaxel over 16 to 18 weeks. Briefly, HCC1954 cells were seeded at a density of ˜5×10^5/mL in a T75 cell culture flask with 10 mL complete growth medium. After 4-6 hours of incubation, relatively low concentrations of paclitaxel (ranging from 1 to 150 nM) were added into the medium. Cells were left in paclitaxel for three days or until a stable cell re-population formed. Regular medium replenishment was performed throughout this period. The paclitaxel concentration was then increased by 0.5 to 2-fold. This stepwise dose escalation continued for 16 to 18 weeks until the paclitaxel concentration reached at least ten times the starting concentration. […]
Drug sensitivity was determined by the 3-(4, 5-dimethylthiazol-2-yl)-2, 5-diphenyl tetrazolium bromide (MTT) colorimetric assay. First, cells were counted with a hemocytometer, seeded in a 96-well plate, and cultured for 24 h. […] The optical density (OD; absorbance at 540 nm) was measured using a plate reader (Tecan). […]
To generate a resistance cell model in vitro (HCC1954 REPX), the HCC1954 cell line was treated with increasing concentrations of paclitaxel, and cell viability was re-evaluated after 18 weeks of treatment.

Q: `CC(=O)O[C@H]1C(=O)[C@@]2(C)[C@H]([C@H](OC(=O)c3ccccc3)[C@]3(O)C[C@H](OC(=O)[C@H](O)[C@@H](NC(=O)c4ccccc4)c4ccccc4)C(C)=C1C3(C)C)[C@]1(OC(C)=O)CO[C@@H]1C[C@@H]2O` [paclitaxel, Paclitaxel] was tested. Which pIC50 (BT474) did it give?
A: 7.00

Q: What about the pIC50 (HCC1954) of the same compound?
A: 7.85

Q: And the pIC50 (HCC1937)?
A: 5.00

Q: What about the pIC50 (MD-MB-231) of the same compound?
A: 6.22

Q: What about the pIC50 (HCC1954 REPX; Homo sapiens, HCC1954 REPX paclitaxel-resistant subtype, after 18 weeks of paclitaxel treatment, MTT) of the same compound?
A: 5.74

Q: And the increase in paclitaxel-resistance (HCC1954 REPX; IC50 in HCC1954 REPX compared to parental HCC1954)?
A: 128.57 fold
